Ki data for 14 compounds are collected here from publication PMC12675387, “Receptor interaction profiles of 4-alkoxy-2,6-dimethoxyphenethylamines (Ψ derivatives) and related amphetamines” (Frontiers in Pharmacology, 2025).

What is called Ki is a dissociation constant, usually derived from enzyme kinetics or from competition with a known ligand. Low values mean tighter binding, high ones weaker binding.

A value given as a limit tells only on which side of the number the result lay.

The target in assay [1] is hDAT (Homo sapiens, UniProt Q01959). The assay can be described thus: Radioligand binding, DAT ([3H]WIN35,428).
In assay [2] the target is rTAAR1 (Rattus norvegicus, UniProt Q923Y9). Briefly: Radioligand binding, rat TAAR1 ([3H]RO5166017).
For assay [3], the target named is mTAAR1 (Mus musculus, UniProt Q923Y8). The assay can be described thus: Radioligand binding, mouse TAAR1 ([3H]RO5166017).
Assay [4] deals with hNET (Homo sapiens, UniProt P23975). Briefly: Radioligand binding, NET (N-methyl-[3H]nisoxetine).
Assay [5] has as its target T1, h5-HT1A receptor (Homo sapiens, UniProt P08908).
T1 sequence (P08908 1-422): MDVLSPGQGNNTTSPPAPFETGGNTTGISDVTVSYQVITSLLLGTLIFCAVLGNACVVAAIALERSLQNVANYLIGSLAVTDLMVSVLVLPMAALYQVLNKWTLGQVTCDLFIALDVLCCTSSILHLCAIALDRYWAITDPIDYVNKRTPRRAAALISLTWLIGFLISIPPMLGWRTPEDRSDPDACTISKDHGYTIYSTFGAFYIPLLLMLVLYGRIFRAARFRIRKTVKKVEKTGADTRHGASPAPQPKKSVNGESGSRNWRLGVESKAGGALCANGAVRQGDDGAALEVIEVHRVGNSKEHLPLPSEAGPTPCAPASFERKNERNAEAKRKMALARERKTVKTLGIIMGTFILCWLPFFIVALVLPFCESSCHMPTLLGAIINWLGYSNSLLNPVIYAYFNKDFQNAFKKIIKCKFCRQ
Briefly: Radioligand binding, 5-HT1A receptor ([3H]8-OH-DPAT).

Assay [6] deals with T2, h5-HT2C receptor (Homo sapiens, UniProt P28335).
T2 sequence (P28335 33-458): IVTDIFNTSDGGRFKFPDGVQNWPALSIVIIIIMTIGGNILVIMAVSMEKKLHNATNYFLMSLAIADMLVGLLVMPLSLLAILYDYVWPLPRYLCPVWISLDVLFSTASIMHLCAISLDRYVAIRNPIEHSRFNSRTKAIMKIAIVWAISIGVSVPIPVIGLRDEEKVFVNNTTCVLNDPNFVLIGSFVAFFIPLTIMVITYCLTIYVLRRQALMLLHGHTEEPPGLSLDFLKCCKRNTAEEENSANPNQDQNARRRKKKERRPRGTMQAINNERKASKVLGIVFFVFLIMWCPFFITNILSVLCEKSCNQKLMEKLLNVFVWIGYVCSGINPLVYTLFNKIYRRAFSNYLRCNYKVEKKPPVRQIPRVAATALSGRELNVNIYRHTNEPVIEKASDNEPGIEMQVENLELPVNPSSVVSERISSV
The assay can be described thus: Radioligand binding, 5-HT2C receptor ([3H]mesulergine).

Assay [7] concerns the target T3, hα1A adrenergic receptor (Homo sapiens, UniProt P35348).
T3 sequence (P35348 1-466): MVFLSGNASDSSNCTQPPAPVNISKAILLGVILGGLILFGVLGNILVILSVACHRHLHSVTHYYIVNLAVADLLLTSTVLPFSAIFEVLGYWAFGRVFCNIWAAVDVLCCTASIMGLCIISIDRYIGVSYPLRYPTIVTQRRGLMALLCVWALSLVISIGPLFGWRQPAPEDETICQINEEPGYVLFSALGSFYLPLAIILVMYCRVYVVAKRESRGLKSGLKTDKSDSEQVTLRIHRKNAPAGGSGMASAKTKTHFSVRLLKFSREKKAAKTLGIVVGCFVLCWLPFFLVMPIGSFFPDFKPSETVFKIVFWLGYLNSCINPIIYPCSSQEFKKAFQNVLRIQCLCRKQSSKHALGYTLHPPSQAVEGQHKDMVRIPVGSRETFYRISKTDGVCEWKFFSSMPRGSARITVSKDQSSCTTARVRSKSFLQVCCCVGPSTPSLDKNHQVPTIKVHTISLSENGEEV
The assay can be described thus: Radioligand binding, α1A adrenergic receptor ([3H]prazosin). As to conditions: hα1A Ki ± SD.

Assay [8] concerns the target hD2 receptor (Homo sapiens, UniProt P14416). The assay can be described thus: Radioligand binding, dopaminergic D2 receptor ([3H]spiperone).
For assay [9], the target named is T4, hα2A adrenergic receptor (Homo sapiens, UniProt P08913).
T4 sequence (P08913 1-465): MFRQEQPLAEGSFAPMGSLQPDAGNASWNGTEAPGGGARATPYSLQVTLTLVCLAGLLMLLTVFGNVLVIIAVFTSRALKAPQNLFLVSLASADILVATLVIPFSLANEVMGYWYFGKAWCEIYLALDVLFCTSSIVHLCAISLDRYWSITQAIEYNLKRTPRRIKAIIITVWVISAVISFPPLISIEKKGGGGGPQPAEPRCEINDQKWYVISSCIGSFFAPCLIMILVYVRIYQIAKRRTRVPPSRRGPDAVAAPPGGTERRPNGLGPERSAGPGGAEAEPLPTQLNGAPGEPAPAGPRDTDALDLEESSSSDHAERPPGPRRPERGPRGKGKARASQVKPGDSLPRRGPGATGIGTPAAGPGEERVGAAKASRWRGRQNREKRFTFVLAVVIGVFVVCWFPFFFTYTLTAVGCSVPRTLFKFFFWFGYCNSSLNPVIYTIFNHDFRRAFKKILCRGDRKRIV
The assay can be described thus: Radioligand binding, α2A adrenergic receptor ([3H]rauwolscine).

Sequence of rTAAR1 (Q923Y9 whole entry): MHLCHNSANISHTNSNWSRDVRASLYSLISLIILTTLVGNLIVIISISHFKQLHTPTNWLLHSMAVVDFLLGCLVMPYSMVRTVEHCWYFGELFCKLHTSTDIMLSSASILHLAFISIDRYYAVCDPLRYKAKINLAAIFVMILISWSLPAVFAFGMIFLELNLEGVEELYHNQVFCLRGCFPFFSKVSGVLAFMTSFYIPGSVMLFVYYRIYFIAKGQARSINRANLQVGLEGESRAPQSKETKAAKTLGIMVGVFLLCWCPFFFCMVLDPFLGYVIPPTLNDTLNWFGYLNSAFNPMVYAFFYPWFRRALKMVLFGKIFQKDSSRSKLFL
Sequence of hNET (P23975 whole entry): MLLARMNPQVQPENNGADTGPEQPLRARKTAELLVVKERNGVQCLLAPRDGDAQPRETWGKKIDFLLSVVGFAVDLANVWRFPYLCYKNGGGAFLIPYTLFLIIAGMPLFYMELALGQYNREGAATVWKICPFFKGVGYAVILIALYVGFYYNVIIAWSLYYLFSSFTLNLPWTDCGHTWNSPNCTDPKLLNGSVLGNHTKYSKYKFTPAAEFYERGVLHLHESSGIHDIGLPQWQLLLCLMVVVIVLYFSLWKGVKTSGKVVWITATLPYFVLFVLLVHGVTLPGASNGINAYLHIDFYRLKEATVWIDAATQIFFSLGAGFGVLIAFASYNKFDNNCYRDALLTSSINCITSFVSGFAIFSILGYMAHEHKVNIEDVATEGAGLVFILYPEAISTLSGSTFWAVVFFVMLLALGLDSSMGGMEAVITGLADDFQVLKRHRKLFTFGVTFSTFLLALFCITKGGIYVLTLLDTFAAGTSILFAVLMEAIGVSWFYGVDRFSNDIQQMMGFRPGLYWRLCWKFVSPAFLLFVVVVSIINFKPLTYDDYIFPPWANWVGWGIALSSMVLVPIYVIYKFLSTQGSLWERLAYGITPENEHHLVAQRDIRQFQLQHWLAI
Sequence of hD2 receptor (P14416 whole entry): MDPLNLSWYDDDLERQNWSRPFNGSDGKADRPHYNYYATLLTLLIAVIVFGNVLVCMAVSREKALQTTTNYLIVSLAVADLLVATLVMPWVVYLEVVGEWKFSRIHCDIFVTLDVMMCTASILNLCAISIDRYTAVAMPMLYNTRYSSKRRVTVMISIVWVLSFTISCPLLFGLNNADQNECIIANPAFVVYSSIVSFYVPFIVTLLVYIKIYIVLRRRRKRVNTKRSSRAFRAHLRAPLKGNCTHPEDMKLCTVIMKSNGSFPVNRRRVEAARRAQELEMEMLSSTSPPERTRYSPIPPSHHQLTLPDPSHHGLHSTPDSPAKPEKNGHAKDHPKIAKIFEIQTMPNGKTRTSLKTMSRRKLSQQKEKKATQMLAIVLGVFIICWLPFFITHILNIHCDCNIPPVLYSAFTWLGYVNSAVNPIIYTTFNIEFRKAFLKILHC
Sequence of mTAAR1 (Q923Y8 whole entry): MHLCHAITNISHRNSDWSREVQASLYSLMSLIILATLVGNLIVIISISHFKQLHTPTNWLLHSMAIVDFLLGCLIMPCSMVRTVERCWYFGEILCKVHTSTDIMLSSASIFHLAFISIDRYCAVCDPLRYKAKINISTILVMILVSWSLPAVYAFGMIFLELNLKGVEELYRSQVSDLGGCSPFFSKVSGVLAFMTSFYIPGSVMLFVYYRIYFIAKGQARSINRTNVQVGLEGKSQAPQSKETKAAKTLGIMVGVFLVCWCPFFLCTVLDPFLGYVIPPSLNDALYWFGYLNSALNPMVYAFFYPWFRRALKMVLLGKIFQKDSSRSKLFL
Sequence of hDAT (Q01959 whole entry): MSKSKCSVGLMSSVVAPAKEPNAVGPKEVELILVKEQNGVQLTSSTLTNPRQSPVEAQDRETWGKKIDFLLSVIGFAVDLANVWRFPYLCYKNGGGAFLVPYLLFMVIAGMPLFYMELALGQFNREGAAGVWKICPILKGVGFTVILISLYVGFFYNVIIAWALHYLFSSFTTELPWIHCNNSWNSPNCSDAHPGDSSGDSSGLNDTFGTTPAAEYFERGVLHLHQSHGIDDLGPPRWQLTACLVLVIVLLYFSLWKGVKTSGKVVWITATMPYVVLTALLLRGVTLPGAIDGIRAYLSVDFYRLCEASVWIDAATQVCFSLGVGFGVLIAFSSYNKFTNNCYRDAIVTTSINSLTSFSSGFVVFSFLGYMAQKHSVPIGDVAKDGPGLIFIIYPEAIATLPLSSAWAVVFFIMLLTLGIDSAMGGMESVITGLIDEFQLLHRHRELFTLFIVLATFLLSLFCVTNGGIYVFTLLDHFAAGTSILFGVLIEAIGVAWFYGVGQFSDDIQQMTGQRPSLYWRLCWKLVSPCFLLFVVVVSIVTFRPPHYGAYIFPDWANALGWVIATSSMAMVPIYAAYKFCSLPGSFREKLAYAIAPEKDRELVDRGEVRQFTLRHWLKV

With `COc1cc(OCCF)cc(OC)c1CC(C)N` (stereo not drawn) [Ψ-MFEM, 2,6-dimethoxy-4-(2-fluoroethoxy)amphetamine], the Ki is above 8500 nM in assay [1] (hDAT Ki ± SD, [3H]WIN35,428); 52 ± 18 nM in [2]; 560 ± 10 nM in assay [3]; above 8800 nM in assay [4]; above 5600 nM in assay [5]; 10000 nM in assay [6]. The inhibition constant (Ki) in [7] is 6700 nM; in assay [8], above 6000 nM; in [9], 4100 nM.

As for `C=C(C)COc1cc(OC)c(CCN)c(OC)c1` [Ψ-2C-O-3, 2,6-dimethoxy-4-methallyloxyphenethylamine], the inhibition constant (Ki) was 7800 nM in assay [1] (hDAT Ki ± SD, [3H]WIN35,428); 6.4 ± 1.1 nM in assay [2]; 120 ± 20 nM in assay [3]; above 8800 nM in [4]; 1010 nM in assay [5]; 210 ± 140 nM in assay [6]. In addition, the inhibition constant Ki in assay [7] is 990 ± 20 nM; in assay [8], above 6000 nM; in [9] it was 280 ± 30 nM.

Turning to `COc1cc(OCC(F)(F)F)cc(OC)c1CCN` [Ψ-2C-O-22, 2,6-dimethoxy-4-(2,2,2-trifluoroethoxy)phenethylamine], the Ki in assay [1] (hDAT Ki ± SD, [3H]WIN35,428) was above 8500 nM; in assay [2], 21 ± 2 nM; in assay [3] it was 210 ± 40 nM; in assay [4] it was above 8800 nM; in assay [5], 2400 nM; in assay [6] it was 2200 nM. Besides, the results for the inhibition constant (Ki) in assay [7], in [8] and in [9] were 2000 nM, above 6000 nM and 1500 nM, respectively.

As to `COc1cc(OCc2ccccc2)cc(OC)c1CCN` [Ψ-2C-O-27, 4-benzyloxy-2,6-dimethoxyphenethylamine], the Ki was 1300 to 1800 nM in [1] (DAT Ki); 1300 nM in assay [1] (hDAT Ki ± SD, [3H]WIN35,428); 3.1 ± 0.2 nM in assay [2]; 610 ± 6 nM in assay [3]; 6200 nM in assay [4]; 2100 nM in [5]. Also, the Ki in assay [6] was 110 ± 10 nM; in [7] it was 3600 nM; in [8] it was above 6000 nM; in assay [9] it was 410 ± 20 nM.

Turning to `CCOc1cc(OC)c(CC(C)N)c(OC)c1` (stereo not drawn) [Ψ-MEM, 2,6-dimethoxy-4-ethoxyamphetamine], the Ki in assay [1] (hDAT Ki ± SD, [3H]WIN35,428) is above 8500 nM; in assay [2] it was 110 ± 10 nM; in [3], 400 ± 20 nM; in assay [4], above 8800 nM; in assay [5], above 5600 nM; in assay [6], 5100 nM. Moreover, the inhibitory constant (Ki) in assay [7] was 6010 nM; in assay [8] it was above 6000 nM; in [9] it was 2200 nM.

As for `COc1cc(OCC(F)F)cc(OC)c1CCN` [Ψ-2C-O-21.5, 4-(2,2-difluoroethoxy)-2,6-dimethoxyphenethylamine], the Ki was above 8500 nM in assay [1] (hDAT Ki ± SD, [3H]WIN35,428); 14 ± 3 nM in [2]; 220 ± 40 nM in assay [3]; above 8800 nM in assay [4]; 1300 nM in [5]; 2800 nM in assay [6]. In addition, the Ki in assay [7] was 2000 nM; in assay [8], above 6000 nM; in assay [9], 1000 nM.

On to `COc1cc(OC(F)F)cc(OC)c1CC(C)N` (stereo not drawn) [Ψ-DODFMO, 4-(2,2-difluoromethoxy)-2,6-dimethoxyamphetamine], for which the inhibition constant (Ki) was above 8500 nM in assay [1] (hDAT Ki ± SD, [3H]WIN35,428); 140 ± 40 nM in [2]; 860 ± 40 nM in [3]; above 8800 nM in [4]; 5100 nM in assay [5]; 1800 nM in assay [6]. Further, the results for the Ki in [7], in [8] and in [9] were 5900 nM, above 6000 nM and 2300 nM, respectively.

`C=CCOc1cc(OC)c(CC(C)N)c(OC)c1` (stereo not drawn) [Ψ-MALM, 4-allyloxy-2,6-dimethoxyamphetamine]: the Ki in [1] (hDAT Ki ± SD, [3H]WIN35,428) is above 8500 nM; in assay [2] it was 58 ± 11 nM; in assay [3], 270 ± 50 nM; in assay [4], above 8800 nM; in assay [5], above 5600 nM; in [6], 780 ± 330 nM. In addition, the Ki in [7] is 1400 nM; in assay [8], above 6000 nM; in assay [9] it was 1800 nM.

On to `CCOc1cc(OC)c(CCN)c(OC)c1` [Ψ-2C-O-2, 2,6-dimethoxy-4-ethoxyphenethylamine], for which the Ki in [1] (hDAT Ki ± SD, [3H]WIN35,428) is above 8500 nM; in [3], 230 ± 20 nM; in assay [4] it was above 8800 nM; in assay [5], 710 ± 30 nM; in assay [6], 1500 nM; in [7], 3300 nM. The Ki in assay [8] was above 6000 nM; in [9] it was 670 ± 60 nM.

For the compound `C=C(C)COc1cc(OC)c(CC(C)N)c(OC)c1` (stereo not drawn) [Ψ-MMALM, 2,6-dimethoxy-4-methallyloxyamphetamine], the Ki is 5700 nM in [1] (hDAT Ki ± SD, [3H]WIN35,428); 32 ± 5 nM in assay [2]; 250 ± 50 nM in assay [3]; above 8800 nM in assay [4]; above 5600 nM in [5]; 290 ± 90 nM in assay [6]. Moreover, the Ki in assay [7] was 2200 nM; in assay [8] it was above 6000 nM; in assay [9] it was 1400 nM.

With `COc1cc(OCC(F)(F)F)cc(OC)c1CC(C)N` (stereo not drawn) [Ψ-MTFEM, 2,6-dimethoxy-4-(2,2,2-trifluoroethoxy)amphetamine], the Ki in [1] (hDAT Ki ± SD, [3H]WIN35,428) is 6400 nM; in assay [2], 110 ± 40 nM; in assay [3], 410 ± 80 nM; in assay [4], above 8800 nM; in assay [5] it was above 5600 nM; in assay [6] it was 5500 nM. In addition, the results for the Ki in assay [7], in [8] and in assay [9] were 6100 nM, above 6000 nM and 3800 nM, respectively.

`COc1cc(OCCF)cc(OC)c1CCN` [Ψ-2C-O-21, 2,6-dimethoxy-4-(2-fluoroethoxy)phenethylamine]: the Ki was above 8500 nM in assay [1] (hDAT Ki ± SD, [3H]WIN35,428); 19 ± 1 nM in assay [2]; 320 ± 30 nM in assay [3]; above 8800 nM in assay [4]; 1600 nM in assay [5]; 3500 nM in assay [6]. For the same compound, the Ki in assay [7] was 4600 nM; in [8], above 6000 nM.

As for `COc1cc(OCc2ccccc2)cc(OC)c1CC(C)N` (stereo not drawn) [Ψ-MBnM, 4-benzyloxy-2,6-dimethoxyamphetamine], the Ki is 1300 to 1800 nM in assay [1] (DAT Ki); 1800 nM in assay [1] (hDAT Ki ± SD, [3H]WIN35,428); 6.1 ± 0.7 nM in [2]; 190 ± 10 nM in assay [3]; 7100 nM in [4]; above 5600 nM in assay [5]. Further, the Ki is 270 ± 50 nM in [6], 5800 nM in assay [7], above 6000 nM in assay [8] and 2000 nM in assay [9].

On to `C=CCOc1cc(OC)c(CCN)c(OC)c1` [Ψ-2C-O-16, 4-allyloxy-2,6-dimethoxyphenethylamine], for which the Ki in assay [1] (hDAT Ki ± SD, [3H]WIN35,428) was above 8500 nM; in assay [2], 12 nM; in [3], 150 ± 20 nM; in [4] it was above 8800 nM; in [5], 910 ± 60 nM; in [6], 500 ± 230 nM. The values for the Ki in [7], in [8] and in assay [9] were 670 ± 60 nM, above 6000 nM and 310 ± 20 nM, respectively.
